Experimental data from patent publication US9145444B2, “Compounds and methods associated with differential methylation of human papilloma virus genomes in epithelial cells” (Ruprecht-Karls-Universität Heidelberg, priority 2007, dated 2015).

Tests used:
[1] = phase I and II trials, systemic therapy; cited from earlier work
normal human firoblasts = details: normal human fibroblasts; cited from earlier work
early p97 HPV16 promoter = experiment: luciferase assay of p97 promoter activity in keratinocytes transfected with LCR16_Luc; assay type: cell-based, human
Experimental: The impact of treatment with epigenetic inhibitors (demethylation agents) on the activity of the p97 promoter is assessed using luciferase assay. Normal human keratinocytes transfected with the reporter plasmid LCR16_Luc, which contains the complete LCR fragment of the HPV-16 cloned in front of the luciferase gene were grown to about 50-60% confluence. Cells were treated with 2 μM and 4 μM 5-azacytidin for 24 and 72 hs.

SMILES | dose-limiting toxicity [1] | most commonly reported non-hematologic adverse effect [1] | basal level and TGFβ-induced collagen biosynthesis (normal human firoblasts) | p97 promoter activity reduced to (early p97 HPV16 promoter; 2 μM, undifferentiated or differentiated cells, FIG. 9) | p97 promoter activity (early p97 HPV16 promoter; 4 μM, undifferentiated and differentiated cells, FIG. 9) | activity of the early p97 promoter (early p97 HPV16 promoter; normal human keratinocytes, LCR16_Luc reporter, 2 μM and 4 μM for 24 and 72 hs)
Nc1ncn([C@H]2C[C@H](O)[C@@H](CO)O2)c(=O)n1 [decitabine, 5-Aza-20-deoxycytidine] | myelosuppression | nausea and vomiting | – | – | – | –
Nc1ncn([C@@H]2O[C@H](CO)[C@@H](O)[C@H]2O)c(=O)n1 [5-azacytidine, 5-Azacytidine] | myelosuppression | nausea and vomiting | inhibits | 40-60% | significantly reduced to the basal level | decreased the activity of the early p97 promoter in a dose dependent manner
